Source: patent publication US4740233A, “Substituted 1,2,4-triazolo[1,5-a]-pyrimidine-2-sulfonamides and compositions and methods of controlling undesired vegetation and suppressing the nitrification of ammonium nitrogen in soil” (The Dow Chemical Company, priority 1986, dated 1988)

Key:
[1] = tested on: annual sugar beet variety (SLC03); assay: Plant growth regulator activity, preemergence; format: in vivo; details: Beta vulgaris, pre-emergence; 6-7 weeks; read-out: Bolting Inhibition (preemergence), concentration with observed effect
Source text: (§1) Using a regular biennial variety, even a bolting-susceptible variety would require a cold treatment of around 10-16 weeks plus a hormone treatement in conjunction with specific light intensities. Thus, for a screening organism, we selected one which would consistently produce bolting on a regular schedule. The screen is run with an annual sugar beet variety (SLC03) provided by Dr. Richard J. Hecker, Fort Collins, Colo. This variety is an inbred which bolts in the 6- to 8-leaf stage without any need for vernalization. This allows the screen to be run entirely in the greenhouse with all 110 chemical compounds tested on one tray. The sugarbeets are grown in 3×3 inch square pots in a greenhouse sandy loam potting mix. The sugarbeets are sprayed with test compounds when they are 2 to 3 weeks old (2 true leaves). The compounds are dissolved in acetone and diluted with water containing Tween 20 as a wetting agent. The concentration of acetone in the final spray is 20% and the concentration of Tween 20 is 0.05 percent. The plants are examined for the appearance of a bolt 4 weeks after spraying.
Preemergence tests are conducted by spraying formulated chemical on seeds placed on potting soil. The sprayed seeds are then covered with 1/4 inch of potting soil and the pots are watered. Bolting is evaluated 6-7 weeks after the initiation of the test. At this time untreated plants have a vigorous bolting stem with visible flowers.

[2] = tested on: annual sugar beet variety (SLC03); assay: Plant growth regulator activity, postemergence; format: in vivo; details: Beta vulgaris, post-emergence, 672 h, 4 weeks after spraying; read-out: Bolting Inhibition (postemergence), concentration with observed effect
Source text: as §1

[3] = tested on: annual morning glory; assay: Preemergent control of plant species; format: in vivo, Ipomoea spp.; details: Ipomoea, pre-emergence, 336 h; 0.25 lb/acre; read-out: percent preemergent control
In short: (§2)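 Growth reduction relative to untreated plants of the same species, assessed two weeks after treatment, defines the control value. Compositions, mostly aqueous emulsions, were deposited uniformly on seeded greenhouse soil beds at the tabulated rates, with a water-treated bed as reference.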

[4] = tested on: nitrification of ammonium nitrogen; assay: Suppression of nitrification of ammonium nitrogen in soil; details: 27° C.
In short: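 Soil (20 g) moistened to its 1/3 bar tension value, mixed with test chemical and incubated sealed for two weeks at 27° C. Nitrate extracted with ammonium sulfate solution and measured by nitrate-specific ion electrode; value given as % NH4-N remaining.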

[5] = tested on: yellow foxtail; assay: Preemergent control of plant species; format: in vivo, Setaria lutescens; details: Setaria, pre-emergence, 336 h; 0.25 lb/acre; read-out: percent preemergent control
In short: as §2

[6] = tested on: cotton; assay: Preemergent control of plant species; format: in vivo, Gossypium spp.; details: Gossypium hirsutum, pre-emergence, 336 h; 0.25 lb/acre; read-out: percent preemergent control
In short: as §2

[7] = tested on: sugar beet; assay: Preemergent control of plant species; format: in vivo, Beta saccharifera; details: Beta vulgaris, pre-emergence, 336 h; 0.25 lb/acre; read-out: percent preemergent control
In short: as §2

[8] = tested on: yellow nutsedge; assay: Preemergent control of plant species; format: in vivo, Cyperus esculentus; details: Cyperus, pre-emergence, 336 h; 0.25 lb/acre; read-out: percent preemergent control
In short: as §2

[9] = tested on: wild oats; assay: Preemergent control of plant species; format: in vivo; details: Avena fatua, pre-emergence, 336 h; 0.25 lb/acre; read-out: percent preemergent control
In short: as §2

[10] = tested on: rape; assay: Preemergent control of plant species; format: in vivo, Brassica napus; details: Brassica napus, pre-emergence, 336 h; 0.25 lb/acre; read-out: percent preemergent control
In short: as §2

[11] = tested on: velvetleaf; assay: Preemergent control of plant species; format: in vivo, Abutilon theophrasti; details: Abutilon theophrasti, pre-emergence, 336 h; 0.25 lb/acre; read-out: percent preemergent control
In short: as §2

[12] = tested on: barnyardgrass; assay: Preemergent control of plant species; format: in vivo, Echinochloa crusgalli; details: Echinochloa crus-galli, pre-emergence, 336 h; 0.25 lb/acre; read-out: percent preemergent control
In short: as §2

[13] = tested on: rice; assay: Preemergent control of plant species; format: in vivo, Oryza sativa; details: Oryza sativa, pre-emergence, 336 h; 0.25 lb/acre; read-out: percent preemergent control
In short: as §2

[14] = tested on: sorghum; assay: Preemergent control of plant species; format: in vivo, Sorghum vulgare; details: Sorghum, pre-emergence, 336 h; 0.25 lb/acre; read-out: percent preemergent control
In short: as §2

[15] = tested on: wheat; assay: Preemergent control of plant species; format: in vivo, Triticum aestivum; details: Triticum aestivum, pre-emergence, 336 h; 0.25 lb/acre; read-out: percent preemergent control
In short: as §2

[16] = tested on: soybean; assay: Preemergent control of plant species; format: in vivo, Glycine max.; details: Glycine max, pre-emergence, 336 h; 0.25 lb/acre; read-out: percent preemergent control
In short: as §2

[17] = tested on: corn; assay: Preemergent control of plant species; format: in vivo, Zea mays; details: Zea mays, pre-emergence, 336 h; 0.25 lb/acre; read-out: percent preemergent control
In short: as §2

[18] = tested on: johnson grass; assay: Preemergent control of plant species; format: in vivo, Sorghum halepense; details: Sorghum halepense, pre-emergence, 336 h; 0.25 lb/acre; read-out: percent preemergent control
In short: as §2

**Q.** Which minimal effective concentration [1] does the source give for `Cc1ccccc1NS(=O)(=O)c1nc2ncc(Cl)cn2n1` [Compound 129] here?
**A.** 400 µg/mL

**Q.** What about the minimal effective concentration [2] of the same compound?
**A.** 400 µg/mL

**Q.** For `CC(C)c1ccn2nc(S(=O)(=O)Nc3c(Cl)cccc3Cl)nc2n1` [Compound 204], which pest or weed control at 280.212 g/ha [3] is on record?
**A.** 0%

**Q.** And the “% NH4-N Remaining After 2 Weeks Incubation” value ([4]; 0.6 ppm)?
**A.** 0%

**Q.** And the “% NH4-N Remaining After 2 Weeks Incubation” value ([4]; 1.25 ppm)?
**A.** 0%

**Q.** And the “% NH4-N Remaining After 2 Weeks Incubation” value ([4]; 2.5 ppm)?
**A.** 34%

**Q.** What about the “% NH4-N Remaining After 2 Weeks Incubation” value ([4]; 5 ppm) of the same compound?
**A.** 56%

**Q.** What about the “% NH4-N Remaining After 2 Weeks Incubation” value ([4]; 10 ppm) of the same compound?
**A.** 66%

**Q.** And the pest or weed control at 280.212 g/ha [5]?
**A.** 0%

**Q.** What about the plant injury at 280.212 g/ha [6] of the same compound?
**A.** 80%

**Q.** And the plant injury at 280.212 g/ha [7]?
**A.** 90%

**Q.** And the pest or weed control at 280.212 g/ha [8]?
**A.** 0%

**Q.** And the pest or weed control at 280.212 g/ha [9]?
**A.** 0%

**Q.** And the plant injury at 280.212 g/ha [10]?
**A.** 40%

**Q.** What about the pest or weed control at 280.212 g/ha [11] of the same compound?
**A.** 0%

**Q.** And the pest or weed control at 280.212 g/ha [12]?
**A.** 0%

**Q.** What about the plant injury at 280.212 g/ha [13] of the same compound?
**A.** 0%

**Q.** And the plant injury at 280.212 g/ha [14]?
**A.** 60%

**Q.** What about the plant injury at 280.212 g/ha [15] of the same compound?
**A.** 0%

**Q.** And the plant injury at 280.212 g/ha [16]?
**A.** 0%

**Q.** And the plant injury at 280.212 g/ha [17]?
**A.** 40%

**Q.** What about the pest or weed control at 280.212 g/ha [18] of the same compound?
**A.** 0%

**Q.** What about the minimal effective concentration [2] of the same compound?
**A.** 400 µg/mL
